Settings: 6 mg continuous, regimen 2 (n = 78)

SMILES: COc1cc(OC)cc(N(CCNC(C)C)c2ccc3ncc(-c4cnn(C)c4)nc3c2)c1 [erdafitinib, N-(3,5-dimethoxy-phenyl)-N′-(1-methylethyl)-N-[3-(1-methyl-1H-pyrazol-4-yl)quinoxalin-6-yl]ethane-1,2-diamine]
- Patients with Abdominal pain, Any grade: 14 (18) no. (%)
- Patients with Abdominal pain, Grade 1: 7 (9) no. (%)
- Patients with Abdominal pain, Grade 2: 5 (6) no. (%)
- Patients with Abdominal pain, Grade ≥3: 2 (3) no. (%)
- Patients with Alanine aminotransferase increased, Any grade: 9 (12) no. (%)
- Patients with Alanine aminotransferase increased, Grade 1: 7 (9) no. (%)
- Patients with Alanine aminotransferase increased, Grade 2: 2 (3) no. (%)
- Patients with Alanine aminotransferase increased, Grade ≥3: 0 no. (%)
- Patients with Alopecia, Any grade: 10 (13) no. (%)
- Patients with Alopecia, Grade 1: 9 (12) no. (%)
- Patients with Alopecia, Grade 2: 1 (1) no. (%)
- Patients with Alopecia, Grade ≥3: 0 no. (%)
- Patients with Anemia, Any grade: 13 (17) no. (%)
- Patients with Anemia, Grade 1: 0 no. (%)
- Patients with Anemia, Grade 2: 8 (10) no. (%)
- Patients with Anemia, Grade ≥3: 5 (6) no. (%)
- Patients with Arthralgia, Any grade: 8 (10) no. (%)
- Patients with Arthralgia, Grade 1: 5 (6) no. (%)
- Patients with Arthralgia, Grade 2: 2 (3) no. (%)
- Patients with Arthralgia, Grade ≥3: 1 (1) no. (%)
- Patients with Aspartate aminotransferase increased, Any grade: 9 (12) no. (%)
- Patients with Aspartate aminotransferase increased, Grade 1: 7 (9) no. (%)
- Patients with Aspartate aminotransferase increased, Grade 2: 2 (3) no. (%)
- Patients with Aspartate aminotransferase increased, Grade ≥3: 0 no. (%)
- Patients with Asthenia, Any grade: 18 (23) no. (%)
- Patients with Asthenia, Grade 1: 5 (6) no. (%)
- Patients with Asthenia, Grade 2: 4 (5) no. (%)
- Patients with Asthenia, Grade ≥3: 9 (12) no. (%)
- Patients with Back pain, Any grade: 11 (14) no. (%)
- Patients with Back pain, Grade 1: 6 (8) no. (%)
- Patients with Back pain, Grade 2: 3 (4) no. (%)
- Patients with Back pain, Grade ≥3: 2 (3) no. (%)
- Patients with Blood creatinine increased, Any grade: 6 (8) no. (%)
- Patients with Blood creatinine increased, Grade 1: 3 (4) no. (%)
- Patients with Blood creatinine increased, Grade 2: 3 (4) no. (%)
- Patients with Blood creatinine increased, Grade ≥3: 0 no. (%)
- Patients with Conjunctivitis, Any grade: 7 (9) no. (%)
- Patients with Conjunctivitis, Grade 1: 4 (5) no. (%)
- Patients with Conjunctivitis, Grade 2: 2 (3) no. (%)
- Patients with Conjunctivitis, Grade ≥3: 1 (1) no. (%)
- Patients with Constipation, Any grade: 20 (26) no. (%)
- Patients with Constipation, Grade 1: 10 (13) no. (%)
- Patients with Constipation, Grade 2: 10 (13) no. (%)
- Patients with Constipation, Grade ≥3: 0 no. (%)
- Patients with Decreased appetite, Any grade: 29 (37) no. (%)
- Patients with Decreased appetite, Grade 1: 12 (15) no. (%)
- Patients with Decreased appetite, Grade 2: 13 (17) no. (%)
- Patients with Decreased appetite, Grade ≥3: 4 (5) no. (%)
- Patients with Diarrhea, Any grade: 39 (50) no. (%)
- Patients with Diarrhea, Grade 1: 24 (31) no. (%)
- Patients with Diarrhea, Grade 2: 15 (19) no. (%)
- Patients with Diarrhea, Grade ≥3: 0 no. (%)
- Patients with Dry eye, Any grade: 6 (8) no. (%)
- Patients with Dry eye, Grade 1: 3 (4) no. (%)
- Patients with Dry eye, Grade 2: 2 (3) no. (%)
- Patients with Dry eye, Grade ≥3: 1 (1) no. (%)
- Patients with Dry mouth, Any grade: 31 (40) no. (%)
- Patients with Dry mouth, Grade 1: 23 (30) no. (%)
- Patients with Dry mouth, Grade 2: 6 (8) no. (%)
- Patients with Dry mouth, Grade ≥3: 2 (3) no. (%)
- Patients with Dry skin, Any grade: 18 (23) no. (%)
- Patients with Dry skin, Grade 1: 10 (13) no. (%)
- Patients with Dry skin, Grade 2: 8 (10) no. (%)
- Patients with Dry skin, Grade ≥3: 0 no. (%)
- Patients with Dysgeusia, Any grade: 10 (13) no. (%)
- Patients with Dysgeusia, Grade 1: 6 (8) no. (%)
- Patients with Dysgeusia, Grade 2: 4 (5) no. (%)
- Patients with Dysgeusia, Grade ≥3: 0 no. (%)
- Patients with Dyspepsia, Any grade: 9 (12) no. (%)
- Patients with Dyspepsia, Grade 1: 6 (8) no. (%)
- Patients with Dyspepsia, Grade 2: 3 (4) no. (%)
- Patients with Dyspepsia, Grade ≥3: 0 no. (%)
- Patients with Dyspnea, Any grade: 6 (7) no. (%)
- Patients with Dyspnea, Grade 1: 1 (1) no. (%)
- Patients with Dyspnea, Grade 2: 3 (4) no. (%)
- Patients with Dyspnea, Grade ≥3: 2 (3) no. (%)
- Patients with Fatigue, Any grade: 20 (26) no. (%)
- Patients with Fatigue, Grade 1: 8 (10) no. (%)
- Patients with Fatigue, Grade 2: 8 (10) no. (%)
- Patients with Fatigue, Grade ≥3: 4 (5) no. (%)
- Patients with Hand-foot syndrome, Any grade: 13 (17) no. (%)
- Patients with Hand-foot syndrome, Grade 1: 4 (5) no. (%)
- Patients with Hand-foot syndrome, Grade 2: 9 (12) no. (%)
- Patients with Hand-foot syndrome, Grade ≥3: 0 no. (%)
- Patients with Hematuria, Any grade: 6 (8) no. (%)
- Patients with Hematuria, Grade 1: 5 (6) no. (%)
- Patients with Hematuria, Grade 2: 0 no. (%)
- Patients with Hematuria, Grade ≥3: 1 (1) no. (%)
- Patients with Hyperphosphatemia, Any grade: 52 (67) no. (%)
- Patients with Hyperphosphatemia, Grade 1: 44 (56) no. (%)
- Patients with Hyperphosphatemia, Grade 2: 8 (10) no. (%)
- Patients with Hyperphosphatemia, Grade ≥3: 0 no. (%)
- Patients with Hypomagnesemia, Any grade: 6 (8) no. (%)
- Patients with Hypomagnesemia, Grade 1: 6 (8) no. (%)
- Patients with Hypomagnesemia, Grade 2: 0 no. (%)
- Patients with Hypomagnesemia, Grade ≥3: 0 no. (%)
- Patients with Hyponatremia, Any grade: 7 (9) no. (%)
- Patients with Hyponatremia, Grade 1: 2 (3) no. (%)
- Patients with Hyponatremia, Grade 2: 0 no. (%)
- Patients with Hyponatremia, Grade ≥3: 5 (6) no. (%)
- Patients with Insomnia, Any grade: 8 (10) no. (%)
- Patients with Insomnia, Grade 1: 4 (5) no. (%)
- Patients with Insomnia, Grade 2: 2 (3) no. (%)
- Patients with Insomnia, Grade ≥3: 2 (3) no. (%)
- Patients with Lacrimation increased, Any grade: 13 (17) no. (%)
- Patients with Lacrimation increased, Grade 1: 10 (13) no. (%)
- Patients with Lacrimation increased, Grade 2: 3 (4) no. (%)
- Patients with Lacrimation increased, Grade ≥3: 0 no. (%)
- Patients with Nail dystrophy, Any grade: 7 (9) no. (%)
- Patients with Nail dystrophy, Grade 1: 6 (8) no. (%)
- Patients with Nail dystrophy, Grade 2: 1 (1) no. (%)
- Patients with Nail dystrophy, Grade ≥3: 0 no. (%)
- Patients with Nausea, Any grade: 16 (21) no. (%)
- Patients with Nausea, Grade 1: 11 (14) no. (%)
- Patients with Nausea, Grade 2: 4 (5) no. (%)
- Patients with Nausea, Grade ≥3: 1 (1) no. (%)
- Patients with Onycholysis, Any grade: 13 (17) no. (%)
- Patients with Onycholysis, Grade 1: 2 (3) no. (%)
- Patients with Onycholysis, Grade 2: 6 (8) no. (%)
- Patients with Onycholysis, Grade ≥3: 5 (6) no. (%)
- Patients with Onychomadesis, Any grade: 8 (10) no. (%)
- Patients with Onychomadesis, Grade 1: 2 (3) no. (%)
- Patients with Onychomadesis, Grade 2: 6 (8) no. (%)
- Patients with Onychomadesis, Grade ≥3: 0 no. (%)
- Patients with Oropharyngeal pain, Any grade: 8 (10) no. (%)
- Patients with Oropharyngeal pain, Grade 1: 5 (6) no. (%)
- Patients with Oropharyngeal pain, Grade 2: 3 (4) no. (%)
- Patients with Oropharyngeal pain, Grade ≥3: 0 no. (%)
- Patients with Pain in extremity, Any grade: 9 (12) no. (%)
- Patients with Pain in extremity, Grade 1: 2 (3) no. (%)
- Patients with Pain in extremity, Grade 2: 6 (8) no. (%)
- Patients with Pain in extremity, Grade ≥3: 1 (1) no. (%)
- Patients with Paronychia, Any grade: 12 (15) no. (%)
- Patients with Paronychia, Grade 1: 2 (3) no. (%)
- Patients with Paronychia, Grade 2: 10 (13) no. (%)
- Patients with Paronychia, Grade ≥3: 0 no. (%)
- Patients with Peripheral edema, Any grade: 6 (8) no. (%)
- Patients with Peripheral edema, Grade 1: 2 (3) no. (%)
- Patients with Peripheral edema, Grade 2: 3 (4) no. (%)
- Patients with Peripheral edema, Grade ≥3: 1 (1) no. (%)
- Patients with Pyrexia, Any grade: 14 (18) no. (%)
- Patients with Pyrexia, Grade 1: 8 (10) no. (%)
- Patients with Pyrexia, Grade 2: 3 (4) no. (%)
- Patients with Pyrexia, Grade ≥3: 3 (4) no. (%)
- Patients with Retinal detachment, Any grade: 8 (10) no. (%)
- Patients with Retinal detachment, Grade 1: 5 (6) no. (%)
- Patients with Retinal detachment, Grade 2: 3 (4) no. (%)
- Patients with Retinal detachment, Grade ≥3: 0 no. (%)
- Patients with Stomatitis, Any grade: 33 (42) no. (%)
- Patients with Stomatitis, Grade 1: 13 (17) no. (%)
- Patients with Stomatitis, Grade 2: 13 (17) no. (%)
- Patients with Stomatitis, Grade ≥3: 7 (9) no. (%)
- Patients with Urinary tract infection, Any grade: 13 (17) no. (%)
- Patients with Urinary tract infection, Grade 1: 0 no. (%)
- Patients with Urinary tract infection, Grade 2: 9 (12) no. (%)
- Patients with Urinary tract infection, Grade ≥3: 4 (5) no. (%)
- Patients with Vision blurred, Any grade: 5 (6) no. (%)
- Patients with Vision blurred, Grade 1: 3 (4) no. (%)
- Patients with Vision blurred, Grade 2: 1 (1) no. (%)
- Patients with Vision blurred, Grade ≥3: 1 (1) no. (%)
- Patients with Vomiting, Any grade: 11 (14) no. (%)
- Patients with Vomiting, Grade 1: 9 (12) no. (%)
- Patients with Vomiting, Grade 2: 2 (3) no. (%)
- Patients with Vomiting, Grade ≥3: 0 no. (%)
- Patients with Weight decreased, Any grade: 8 (10) no. (%)
- Patients with Weight decreased, Grade 1: 4 (5) no. (%)
- Patients with Weight decreased, Grade 2: 2 (3) no. (%)
- Patients with Weight decreased, Grade ≥3: 2 (3) no. (%)
- Treatment-related adverse event: Alopecia, Any grade: 8 (10) no. (%)
- Treatment-related adverse event: Alopecia, Grade 1: 8 (10) no. (%)
- Treatment-related adverse event: Alopecia, Grade 2: 0 no. (%)
- Treatment-related adverse event: Alopecia, Grade ≥3: 0 no. (%)
